Laboratory results from patent US8063033B2, “Therapeutic beta-lactams” (Allergan, Inc., priority 2008, dated 2011).

System: lashes and adjacent hairs of patients
Assay: Observation of eyelash/hair growth in glaucoma patients treated in one eye
Type: in vivo, human
Conditions: glaucoma patient treated in one eye only
From the text: In the course of treating patients having glaucoma, treatment may only be appropriate in one eye. […] The lash appearance on the lids of the treated eyes would have appeared quite attractive if it represented a bilateral phenomenon. As a result of its asymmetric nature, the long lashes on one side could be construed as disturbing from a cosmetic standpoint. A systemic examination was preformed as a result of the asymmetric phenomenon. It soon became apparent that this altered appearance was not an isolated finding. […] Definite differences could be identified to varying degrees in the lashes and adjacent hairs of all patients who were taking the drug on a unilateral basis for longer than 6 months.
The changes in the lashes were apparent on gross inspection in several patients once attention was focused on the issue. In those with light colored hair and lashes, the differences were only seen easily with the aid of the high magnification and lighting capabilities of the slit lamp biomicroscope. In the course of glaucoma follow-up examination, attention is generally immediately focused on the eye itself. As a result of the high power magnification needed only one eye is seen at a time and the eye is seen at a high enough power that the lashes are not in focus. […]

SMILES: CCNC(=O)CCC/C=C\C[C@@H]1[C@@H](/C=C/[C@@H](O)CCc2ccccc2)[C@H](O)C[C@@H]1O [bimatoprost]
- lash appearance in treated eye versus non-treated eye: longer, thicker, and fuller
